Measured values as given in patent US20250208149A1, “WEE1 COMPOUND FOR TREATING UTERINE SEROUS CARCINOMA” (Recurium IP Holdings, LLC, priority 2022, published 2025).

Columns and labels:
Format in all cases: cell-based
[1] = tested on: HEC-59 endometrial cancer cells; assay: Percent inhibition of cell growth, ZN-c3, LB-100 or ZN-c3+LB-100 (cell titer glow); details: HEC-59 (PPP2R1A wild-type), 72 hours; ZN-c3 400 nM, LB-100 1 μM
Description: (§1) FIG. 18 depicts the percent inhibition of cell growth in HEC-59 endometrial cancer cells after treatment with ZN-c3 alone, the PP2A catalytic inhibitor LB-100 alone, or the combination of ZN-c3+LB-100. HEC-59 cell line is PPP2R1A wild-type. […] Percent inhibition is calculated using cell titer glow analysis.
(§2) Various cancer cell lines were treated with ZN-c3 alone, the PP2A catalytic inhibitor LB-100 alone, or the combination of ZN-c3+LB-100. As in Example 1 and Example 2, the treatment period was 72 hours and percent inhibition was calculated using cell titer glow analysis.
The endometrial cancer cell line HEC-59 was assessed for sensitivity to ZN-c3 alone, LB-100 alone, or the combination of ZN-c3+LB-100 (FIG. 18).

[2] = tested on: OV17R ovarian cancer cells; assay: as above; details: 72 h, read-out: percent inhibition of cell growth
Description: FIG. 19 depicts the percent inhibition of cell growth in OV17R ovarian cancer cells after treatment with ZN-c3 alone, the PP2A catalytic inhibitor LB-100 alone, or the combination of ZN-c3+LB-100. OV17R has the PPP2R1A missense mutation S256F. Percent inhibition is calculated using cell titer glow analysis.
as §2, with “Following observations that both knockdown and knockout of PPP2R1A could sensitize cancer cells to Zn-C3, the effects of pharmacological inhibition of PPP2R1A with the catalytic inhibitor LB-100 were evaluated. Various” for “Various”
The ovarian cancer cell line OV17R was assessed for sensitivity to ZN-c3 alone, LB-100 alone, or the combination of ZN-c3+LB-100 (FIG. 19).

[3] = tested on: HEC-59 endometrial cancer cells; assay: Percent inhibition of cell growth, ZN-c3, LB-100 or ZN-c3+LB-100 after siCTRL or siPPP2R1A (cell titer glow); details: 72 hours, ZN-c3 300 nM, LB-100 1 μM
Description: as §1, with “20” for “18”, “ZN-c3+LB-100 after siRNA mediated knockdown of PPP2R1A.” for “ZN-c3+LB-100. HEC-59 cell line is PPP2R1A wild-type.”
as §2
The endometrial cancer cell line HEC-59 was assessed for sensitivity to ZN-c3 alone, LB-100 alone, or the combination of ZN-c3+LB-100 following treatment with siCTRL or siPPP2R1A (FIG. 20).

[4] = tested on: HEC1B endometrial cancer cells; assay: as above; details: Homo sapiens, HEC-1B, 72 h, read-out: percent inhibition of cell growth
Description: as §1, with “21” for “18”, “HEC1B” for “HEC-59”, “ZN-c3+LB-100 after siRNA mediated knockdown of PPP2R1A.” for “ZN-c3+LB-100. HEC-59 cell line is PPP2R1A wild-type.”
as §2, with “Following observations that both knockdown and knockout of PPP2R1A could sensitize cancer cells to Zn-C3, the effects of pharmacological inhibition of PPP2R1A with the catalytic inhibitor LB-100 were evaluated. Various” for “Various”
The endometrial cancer cell line HEC1B was also assessed for sensitivity to ZN-c3 alone, LB-100 alone, or the combination of ZN-c3+LB-100 following treatment with siCTRL or siPPP2R1A (FIG. 21).

CN1CCN(C(=O)C2C(C(=O)O)[C@H]3CC[C@@H]2O3)CC1 (some centres unmarked) [LB-100, reference compound]
percent inhibition of cell growth [1]: approximately half of that value | inhibition at 1 µM [2]: ~12% | percent inhibition of cell growth ([3]; HEC-59, siCTRL): approximately half of that value | percent inhibition in siPPP2R1A treated cells compared to siCTRL treated cells ([3]; HEC-59, siPPP2R1A): only slightly enhanced | inhibition at 1 µM [4]: 25%
